According to patent publication US20260206756A1, “COMPOUNDS AND METHODS OF TREATING OR PREVENTING A BACTERIAL INFECTION IN A PLANT” (Ohio State Innovation Foundation, priority 2023, published 2026):
Converted amounts (≈) assume the structure as drawn. Read-outs that look alike come from different tables or passages of the source.

Tests used:
[1] = test system: Pseudomonas syringae pv. syringae (Pss) SM1038-14; experiment: Dose-response assay (MIC/MBC) in M9 minimal broth; conditions: 48 h
Description: (§1) Minimum inhibitory concentration (MIC) and minimum bactericidal concentration (MBC) of the 15 PCs against 10 Pss strains. A dose-response assay was conducted with the 15 PCs identified during the primary screening against 10 Pss strains including the model strain, SM1042-14R. The dose-response assay was conducted as described above with concentrations of PCs ranging from 3.125 to 500 μM. Pss treated with non-amended M9 minimal media, 2% DMSO, or 50 μg/ml kanamycin were used as controls. The plate was incubated in a Sunrise Tecan kinetic microplate reader for 48 h at 28° C. The percentage of inhibition and cell viability were determined as described above.

[2] = test system: Pseudomonas syringae pv. syringae (Pss) SM155-18; experiment: Dose-response assay (MIC/MBC) in M9 minimal broth; conditions: 48 h
Description: (§2) Primary screening of 4,182 SMs was conducted using a high throughput screening method to identify SMs that inhibited the growth of Pss SM1042-14R strain. A fresh bacterial culture of SM1042-14R was grown in M9 minimal broth in a shaking incubator (180 rpm) for 12 h at 28° C. The bacterial culture was normalized to a final optical density (OD600) of 0.05 (c.a., 8.0×10^7 CFU/ml) using a Genesys 20 spectrophotometer (Thermo Scientific, Rockford, IL, USA). In a sterile flat-bottom 96-well plate, 98 μl of the normalized bacterial suspension was challenged with 2 μl of SMs (final concentration of 200 μM). Controls were bacteria challenged with 2% DMSO (positive control; μc+), 50 μg/ml kanamycin (negative control; μc−), or M9 broth alone (blank control). The plate was incubated in a Sunrise Tecan kinetic microplate reader (Tecan Group Ltd., San Jose, CA, USA) for 48 h at 28° C. OD600 was measured every 30 min.
(§3) The plate was agitated for 15 s at 180 rpm before reading the OD600. Growth inhibition of SM1042-14R by the SMs was calculated using the following formula: % of inhibition=(μc+−X)/(μc+−μc−)×100, where μc+ and μc− is the average final OD600 of the positive and negative controls, respectively, and X is the final OD600 of each of the bacterial culture treated with a designated SM. After the 48 h of incubation with the SMs at 28° C., the viability of the bacterial culture was assessed by plating 5 μl of the culture on YDC (Yeast Dextrose Carbonate) agar medium, incubating the plate at 28° C. and monitoring any bacterial colonies on the plate after 48 h.
(§4) A dose-response assay was conducted with the 15 PCs identified during the primary screening against 10 Pss strains including the model strain, SM1042-14R. The dose-response assay was conducted as described above with concentrations of PCs ranging from 3.125 to 500 μM. Pss treated with non-amended M9 minimal media, 2% DMSO, or 50 μg/ml kanamycin were used as controls. The plate was incubated in a Sunrise Tecan kinetic microplate reader for 48 h at 28° C. The percentage of inhibition and cell viability were determined as described above.

[3] = test system: Pseudomonas syringae pv. syringae (Pss) SM1031-14; experiment: Dose-response assay (MIC/MBC) in M9 minimal broth; conditions: 48 h
Description: as §2, §3, §4

[4] = test system: Pseudomonas syringae pv. syringae (Pss) SM109-18; experiment: Dose-response assay (MIC/MBC) in M9 minimal broth; conditions: 48 h
Description: as §2, §3, §4

[5] = test system: Pseudomonas syringae pv. syringae (Pss) SM1030-14; experiment: Dose-response assay (MIC/MBC) in M9 minimal broth; conditions: 48 h
Description: as §2, §3, §4

[6] = test system: Pseudomonas syringae pv. syringae (Pss) SM914-13; experiment: Dose-response assay (MIC/MBC) in M9 minimal broth; conditions: 48 h
Description: as §1

[7] = test system: Pseudomonas syringae pv. syringae (Pss) SM04-2018-04; experiment: Dose-response assay (MIC/MBC) in M9 minimal broth; conditions: 48 h
Description: as §1

[8] = test system: Pss SM1042-14R on pepper seedlings; format: in vivo, Pseudomonas syringae pv. syringae; conditions: 200 μM, 7 dpi; for Pseudomonas leaf spot incidence, Curative application / Pseudomonas leaf spot incidence, Preventative application: streptomycin 200 μg/ml, CuSO4 200 μM
[9] = test system: Pseudomonas syringae pv. syringae (Pss) SM156-18; experiment: Dose-response assay (MIC/MBC) in M9 minimal broth; conditions: 48 h
Description: as §1

[10] = test system: Pseudomonas syringae pv. syringae (Pss) SM51-19; experiment: Dose-response assay (MIC/MBC) in M9 minimal broth; conditions: 48 h
Description: as §1

[11] = test system: Pseudomonas syringae pv. syringae (Pss) SM1042-14R; experiment: Dose-response assay (MIC/MBC) in M9 minimal broth; conditions: strain SM1042-14R, 48 h, 28° C.
Description: as §2, §3, §4

ten Pss strains = experiment: Dose-response assay (MIC/MBC), summary across ten Pss strains; format: cell-based, Pseudomonas syringae pv. syringae; conditions: Pseudomonas syringae; across the different Pss strains; M9 broth; read-out: MICs and MBCs
[12] = test system: Pss SM1042-14R in infested pepper seeds; experiment: Antimicrobial efficacy on pepper seeds artificially infested with Pss; format: in vivo, Pseudomonas syringae pv. syringae; conditions: 30 dpi, 200 μM, 20 min soak
Description: Antimicrobial efficacy of ten selected PCs on pepper seeds artificially infested with Pss SM1042-14R. ‘California Wonder’ pepper seeds were used for artificial infestation with Pss SM1042-14R and PC treatment. Inoculum of Pss SM1042-14R was prepared by growing SM1042-14R in M9 minimal medium overnight as described above. The OD600 was adjusted to 0.1; approximately 1×10^8 CFU/ml. The adjusted inoculum (45 ml of inoculum for 4 g seeds) was transferred to a sterile glass beaker and placed in a Nucerite desiccator (Nalge Sybron, Milwaukee, WI, USA). Seeds were vacuum infiltrated with inoculum at 15 PSI for 5 min. Infested seeds were air-dried in a laminar flow hood at room temperature for 12 h. The dried seeds were transferred to 5 ml sterile tubes and soaked in 1 ml of PCs (200 μM) diluted in sterile water for 20 min. The seeds were air-dried again. Seed aliquots were collected at 1, 3-, 10-, 20-, and 30-days post infestation (dpi, 10 seeds per treatment group per time point). Bacterial populations were estimated by macerating five batches of two seeds per treatment group in 400 μl of 1×PBS in a Whirl Pak bag. […] This was performed twice.

Pss SM1042-14R = experiment: Antimicrobial resistance studies (single step and sequential passage); conditions: Pseudomonas syringae, SM104214R
Description: Antimicrobial resistance studies. […] For the single-step resistance, M9 agar medium amended with 2×MBC of PCs was prepared in a sterile 24-well plate. An overnight culture of SM1042-14R was normalized to OD600 of 1.0 (approximately 10^9 CFU/well). In each of the wells containing different PCs, 50 μl of the adjusted bacterial culture was plated onto the 24 well agar plate. The plate was sealed using parafilm and incubated in the dark at 28° C. for 15 days. After 15 days, any colonies that grew on the 24-well plate were evaluated for MIC and MBC as described above. The experiment was conducted with three replicates per treatment group. SM1042-14R plated on non-amended M9 agar medium, 2% DMSO or 50 μg/ml kanamycin were used as controls.
For sequential passage (sublethal dose) resistance assay, SM1042-14R was grown in M9 minimal broth and adjusted to OD600 of 0.05 (approximately 10^7 CFU/ml). In a 96-well plate, 98 μl of the adjusted bacterial culture was transferred and 0.75×MBC of PC (concentration that allows approximately 70% growth inhibition) was added into the wells. Plates were incubated at 28° C. with 150 rpm shaking for 24 h in the dark. After incubation, cells were centrifuged, the pellet was resuspended in fresh M9 broth amended with 0.75×MBC of PC and grown as described above. […] After 15 passages, MIC, and MBC of the PCs to SM1042-14R were determined as described above. […]

[13] = strain SM1038-14, M9 broth, 28° C.
[14] = strain SM155-18, M9 broth, 28° C.
[15] = strain SM1031-14, M9 broth, 28° C.
[16] = strain SM109-18, M9 broth, 28° C.
[17] = strain SM1030-14, M9 broth, 28° C.
[18] = strain SM914-13, M9 broth, 28° C.
[19] = strain SM04-2018-04, M9 broth, 28° C.
[20] = strain SM156-18, M9 broth, 28° C.
[21] = strain SM51-19, M9 broth, 28° C.
[22] = preventative (1 day prior to inoculation)

CC1CCC(C(C)C)C(OC(=O)Cn2c[n+](CC(=O)OC3CC(C)CCC3C(C)C)c3ccccc32)C1 (stereo not drawn) [PC4] showed an MBC ([1]; Pseudomonas syringae) of 12.5 µM, an MIC ([1]; Pseudomonas syringae) of 12.5 µM and an MBC ([2]; Pseudomonas syringae) of 25 µM. It also gave an MIC ([2]; Pseudomonas syringae) of 12.5 µM, an MBC ([3]; Pseudomonas syringae) of 12.5 µM and an MIC ([3]; Pseudomonas syringae) of 12.5 µM. The MBC ([4]; Pseudomonas syringae) was 12.5 µM, the MIC ([4]; Pseudomonas syringae) was 12.5 µM and the MBC ([5]; Pseudomonas syringae) was 12.5 µM. It also gave an MIC ([5]; Pseudomonas syringae) of 12.5 µM, an MBC ([6]; Pseudomonas syringae) of 12.5 µM and an MIC ([6]; Pseudomonas syringae) of 12.5 µM. For the same molecule, the MBC ([7]; Pseudomonas syringae) was 25 µM, the MIC ([7]; Pseudomonas syringae) was 12.5 µM and the “Pseudomonas leaf spot incidence, Curative application” value [8] was 100%. For the same molecule, the “Pseudomonas leaf spot incidence, Preventative application” value [8] was 100%, the MBC ([9]; Pseudomonas syringae) was 12.5 µM and the MIC ([9]; Pseudomonas syringae) was 12.5 µM. The MBC ([10]; Pseudomonas syringae) was 12.5 µM and the MIC ([10]; Pseudomonas syringae) was 12.5 µM.

In the case of CCOc1ccc2nc3cc(N)ccc3c(N)c2c1 [PC7], the MBC [1, 13] is reported as 100 µM (≈ 25.3 µg/mL), the MIC [1, 13] is reported as 50 µM (≈ 12.7 µg/mL) and the MBC [2, 14] is reported as 100 µM (≈ 25.3 µg/mL). The MIC [2, 14] was 50 µM (≈ 12.7 µg/mL), the MBC [3, 15] was 100 µM (≈ 25.3 µg/mL) and the MIC [3, 15] was 50 µM (≈ 12.7 µg/mL). It also gave an MBC [4, 16] of 100 µM (≈ 25.3 µg/mL), an MIC [4, 16] of 50 µM (≈ 12.7 µg/mL) and an MBC [5, 17] of 100 µM (≈ 25.3 µg/mL). It also gave an MIC [5, 17] of 50 µM (≈ 12.7 µg/mL), an MBC [6, 18] of 50 µM (≈ 12.7 µg/mL) and an MIC [6, 18] of 25 µM (≈ 6.33 µg/mL). The MBC [7, 19] was 100 µM (≈ 25.3 µg/mL), the MIC [7, 19] was 50 µM (≈ 12.7 µg/mL) and the MBC [11] was 100 µM (≈ 25.3 µg/mL). The MIC [11] was 50 µM (≈ 12.7 µg/mL), the “Pseudomonas leaf spot incidence, Preventative application” value [8] was 86% and the MBC [9, 20] was 100 µM (≈ 25.3 µg/mL). It also gave an MIC [9, 20] of 50 µM (≈ 12.7 µg/mL), an MBC [10, 21] of 200 µM (≈ 50.7 µg/mL) and an MIC [10, 21] of 50 µM (≈ 12.7 µg/mL).

In the case of COc1cc(CN(C)Cc2ccccc2)ccc1OCC(O)CN1CCCCCCC1 (stereo not drawn) [PC9], the MBC ([1]; Pseudomonas syringae) is reported as 200 µM (≈ 85.3 µg/mL), the MIC ([1]; Pseudomonas syringae) is reported as 100 µM (≈ 42.7 µg/mL) and the MBC ([2]; Pseudomonas syringae) is reported as 200 µM (≈ 85.3 µg/mL). The MIC ([2]; Pseudomonas syringae) was 100 µM (≈ 42.7 µg/mL), the MBC ([3]; Pseudomonas syringae) was 200 µM (≈ 85.3 µg/mL) and the MIC ([3]; Pseudomonas syringae) was 200 µM (≈ 85.3 µg/mL). The MBC ([4]; Pseudomonas syringae) was 200 µM (≈ 85.3 µg/mL), the MIC ([4]; Pseudomonas syringae) was 100 µM (≈ 42.7 µg/mL) and the MBC ([5]; Pseudomonas syringae) was 200 µM (≈ 85.3 µg/mL). For the same molecule, the MIC ([5]; Pseudomonas syringae) was 100 µM (≈ 42.7 µg/mL), the MBC (ten Pss strains) was 50 to 200 µM (≈ 21.3 to 85.3 µg/mL) and the MBC ([6]; Pseudomonas syringae) was 200 µM (≈ 85.3 µg/mL). For the same molecule, the MIC ([6]; Pseudomonas syringae) was 200 µM (≈ 85.3 µg/mL), the MBC ([7]; Pseudomonas syringae) was 200 µM (≈ 85.3 µg/mL) and the MIC ([7]; Pseudomonas syringae) was 100 µM (≈ 42.7 µg/mL). The “Pseudomonas leaf spot incidence, Curative application” value [8] was 71%, the “Pseudomonas leaf spot incidence, Preventative application” value [8] was 100% and the “Pss reduction compared to the DMSO group” value ([8]; curative (1 dpi)) was 1.9±0.7 log CFU/g. For the same molecule, the MBC ([9]; Pseudomonas syringae) was 200 µM (≈ 85.3 µg/mL), the MIC ([9]; Pseudomonas syringae) was 200 µM (≈ 85.3 µg/mL) and the MBC ([10]; Pseudomonas syringae) was 200 µM (≈ 85.3 µg/mL). It also gave an MIC ([10]; Pseudomonas syringae) of 100 µM (≈ 42.7 µg/mL).

Cn1cc(CNCCCn2ccnc2)c(-c2ccc(Oc3ccccc3)cc2)n1 [PC10] showed an MBC ([1]; Pseudomonas syringae) of 200 µM (≈ 77.5 µg/mL), an MIC ([1]; Pseudomonas syringae) of 200 µM (≈ 77.5 µg/mL) and an MBC ([2]; Pseudomonas syringae) of 200 µM (≈ 77.5 µg/mL). The MIC ([2]; Pseudomonas syringae) was 200 µM (≈ 77.5 µg/mL), the MBC ([3]; Pseudomonas syringae) was 200 µM (≈ 77.5 µg/mL) and the MIC ([3]; Pseudomonas syringae) was 200 µM (≈ 77.5 µg/mL). The MBC ([4]; Pseudomonas syringae) was 200 µM (≈ 77.5 µg/mL), the MIC ([4]; Pseudomonas syringae) was 200 µM (≈ 77.5 µg/mL) and the “reduction in Pss load in infested seeds” value [12] was 1.9±0.2 log CFU/g. It also gave an MBC ([5]; Pseudomonas syringae) of 200 µM (≈ 77.5 µg/mL), an MIC ([5]; Pseudomonas syringae) of 200 µM (≈ 77.5 µg/mL) and an MBC (ten Pss strains) of 50 to 200 µM (≈ 19.4 to 77.5 µg/mL). For the same molecule, the MBC ([6]; Pseudomonas syringae) was 200 µM (≈ 77.5 µg/mL), the MIC ([6]; Pseudomonas syringae) was 200 µM (≈ 77.5 µg/mL) and the MBC ([7]; Pseudomonas syringae) was 200 µM (≈ 77.5 µg/mL). For the same molecule, the MIC ([7]; Pseudomonas syringae) was 200 µM (≈ 77.5 µg/mL), the “Pseudomonas leaf spot incidence, Curative application” value [8] was 71% and the “Pseudomonas leaf spot incidence, Preventative application” value [8] was 100%. The MBC ([9]; Pseudomonas syringae) was 200 µM (≈ 77.5 µg/mL), the MIC ([9]; Pseudomonas syringae) was 200 µM (≈ 77.5 µg/mL) and the MBC ([10]; Pseudomonas syringae) was 200 µM (≈ 77.5 µg/mL). The MIC ([10]; Pseudomonas syringae) was 200 µM (≈ 77.5 µg/mL).

[H]/N=C(/N)N[C@H]1[C@H](O)[C@@H](O)[C@H](O[C@@H]2O[C@@H](C)[C@](O)(C=O)[C@H]2O[C@@H]2O[C@@H](CO)[C@H](O)[C@@H](O)[C@@H]2NC)[C@@H](N/C(N)=N\[H])[C@@H]1O [streptomycin] was tested, and the MBC (Pss SM1042-14R; SM1042-14R colonies after the sequential passages resistance assay) was > 25 µg/mL, the MBC (Pss SM1042-14R; original culture from glycerol stock) was 12.5 µg/mL (≈ 21.5 µM) and the “reduction in Pss load in infested seeds” value [12] was 2.0±0 log CFU/g. The “Pseudomonas leaf spot incidence, Curative application” value [8] was 86%, the “Pseudomonas leaf spot incidence, Preventative application” value [8] was 71% and the “Pseudomonas leaf spot incidence, Curative application” value ([8]; listed as Strep) was 86%. For the same molecule, the “Pseudomonas leaf spot incidence, Preventative application” value ([8]; listed as Strep) was 71%, the “Pss reduction compared to the DMSO group” value ([8]; curative (1 dpi)) was 2.2±0.5 log CFU/g and the “disease severity (number of lesions per two leaves)” value ([8]; curative (1 dpi), first trial) was 24.4±18.2 lesions. For the same molecule, the “disease severity (number of lesions per two leaves)” value [8, 22] was 88.8±62.5 lesions and the “reduction in Pss load compared to the DMSO group” value [8, 22] was 1.7±0.8 log CFU/g.
